In assay [1] the target is T1, 5-LO (Homo sapiens, UniProt P09917).
T1 construct: host or cells: Sf9 insect cells
T1 sequence (P09917 1-674): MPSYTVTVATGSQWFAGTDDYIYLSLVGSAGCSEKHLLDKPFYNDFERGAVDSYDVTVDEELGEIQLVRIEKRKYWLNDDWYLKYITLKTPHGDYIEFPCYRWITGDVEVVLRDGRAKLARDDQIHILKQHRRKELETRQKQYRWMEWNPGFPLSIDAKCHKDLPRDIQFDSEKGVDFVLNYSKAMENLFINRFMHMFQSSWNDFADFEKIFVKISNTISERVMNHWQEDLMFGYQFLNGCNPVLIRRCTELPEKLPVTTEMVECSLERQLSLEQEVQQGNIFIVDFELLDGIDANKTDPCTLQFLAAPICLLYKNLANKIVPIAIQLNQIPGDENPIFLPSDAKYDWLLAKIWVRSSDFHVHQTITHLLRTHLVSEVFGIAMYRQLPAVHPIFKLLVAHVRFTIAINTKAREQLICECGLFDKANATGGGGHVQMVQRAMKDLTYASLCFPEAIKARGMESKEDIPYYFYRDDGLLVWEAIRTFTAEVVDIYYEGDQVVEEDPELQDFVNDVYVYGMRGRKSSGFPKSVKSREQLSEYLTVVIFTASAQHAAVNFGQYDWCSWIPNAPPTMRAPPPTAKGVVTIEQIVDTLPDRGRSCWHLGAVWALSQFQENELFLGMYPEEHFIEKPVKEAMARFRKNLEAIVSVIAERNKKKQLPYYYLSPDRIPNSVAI
Put plainly: 5-Lipoxygenase inhibition (LTB4 enzyme immunoassay). It is filed as biochemical. The following applies: 5-LO, at 10 µM; read-out: % Inhibition. The method, then:
The 5-LO-inhibitory activity of compounds of the invention was determined using previously reported assays. Briefly, lipoxygenase activity was evaluated in human recombinant insect Sf9 cells using 3µM arachidonic acid as a substrate with a preincubation and incubation times of 15 and 5 min respectively at 25°C in a 50 mM Tris-HCl, pH 7.4, 2 mM CaCl2, 1 mM ATP. The quantification method used was enzyme immunoassay determination of LTB4 and the significance criteria were established with a response equal or different of the maximum stimulation or inhibition (Noguchi, M. et al., Eur J Biochem, 1994, 222(2), 285-292; Percival, M.D. et al., Eur J Biochem, 1992, 210(1), 109-117).

The subject of assay [2] is mice. Put plainly: Formalin test (antinociceptive activity). It is filed as in vivo. Conditions: formalin test, dose 10 mg/Kg i.p. How it is done:
The chemical irritant formalin test is used as a chronic pain model in animals. The s.c. administration of formalin to the paw of a mouse produces a biphasic nociceptive behavioral response, an early response (0-5 min after injection) and a late response (20-30 min after injection) (Hunskaar, S., Fasmer, O.B., Hole, K. Formalin test in mice, a useful technique for evaluating mild analgesics. J Neurosci Methods, 1985 ;14(1):69-76).
Aspirine and paracetamol are included as external active references in early and late response. Table 12. Early and late response inhibition in the formalin test.

Counter-ions that a name gives are not always drawn.

Regarding `CCCc1ccc(O)c(-c2ccc(OC(CCNC)c3ccccc3)c(CCC)c2)c1` (stereo not drawn) [Example 6, 4'-[3-(Methylamino)-1-phenylpropoxy]-3',5-dipropylbiphenyl-2-ol hydrochloride], the inhibition (as a rule, the share of the control response that was lost under treatment) at 10 µM in assay [1] came out at 100%.

With `CN1CC[C@]23c4c5ccc(O)c4O[C@H]2[C@@H](O)C=C[C@H]3[C@H]1C5` [Morphine, reference compound], the “Early Response” value in assay [2] (early response 0-5 min) is listed as “active”. Further, the “Late Response” value in assay [2] (late response 20-30 min) is recorded as “active”.

The record behind these values is patent EP2423181A1, “Multitarget substituted biphenyl diol derivatives” (PROUS INSTITUTE FOR BIOMEDICAL RESEARCH S.A., priority 2010, dated 2012).
